Experimental data reported in US12090204B2, “Photodynamic therapy compositions and methods of use thereof” (Pinnacle Biologics, Inc., priority 2020, dated 2024).

Experiments:
S. enterica (−) = assay: porfimer sodium aPDT, planktonic culture; format: cell-based, Salmonella enterica; settings: 630 nm, 200 J/cm2, porfimer sodium 125 μg/mL
Description: (§1) Bacteria were routinely cultured using tryptic soy broth or agar at 37° C. in a 5% CO2 incubator. Bacteria were isolated and suspended with 0.9% NaCl to an Optical Density (OD) of 0.1 taken at 630 nm, to generate the inoculum used for either planktonic or biofilm assays.
(§2) Experiments using planktonic cultures were carried out using M. catarrhalis, as a standard for further comparisons and to determine the effective drug concentration, porfimer sodium incubation time and light dose parameters which would provide an effective cell kill at the level of 5-7 logs. Once determined the experiments were repeated for all other bacterial strains examined.
(§3) The colony forming units (CFU) per mL of the starting inoculum for every experiment was determined by dilution plating. […]
(§4) Bacteria were exposed to 630 nm laser light via a fiber optic with a lens affixed to the distal end to provide a uniform diverging light field. […] Power output of the laser was measured using a UDT/Gamma Scientific 371 optical power meter and an integrating sphere. […]
(§5) Biofilms were formed on glass coupons in culture dishes containing a bacterial inoculum for 48 hours under conditions specific to the strain. […] Power output of the laser was measured using a UDT/Gamma Scientific 371 optical power meter and an integrating sphere. […]

Y. intermedia (−) = assay: porfimer sodium aPDT, planktonic culture; format: cell-based, Yersinia intermedia; settings: 630 nm, 200 J/cm2, porfimer sodium 125 μg/mL
Description: as §1, §2, §3, §4, §5

A. baumannii (−) = assay: porfimer sodium aPDT, planktonic culture; format: cell-based, Acinetobacter baumannii; settings: 630 nm, 200 J/cm2, porfimer sodium 125 μg/mL
Description: as §1, §2, §3, §4, §5

N. gonorrhoea (−) = assay: porfimer sodium aPDT, planktonic culture; format: cell-based, Neisseria gonorrhea; settings: 630 nm, 200 J/cm2, porfimer sodium 125 μg/mL
Description: as §1, §2, §3, §4, §5

M. catarrhalis (−) = assay: porfimer sodium aPDT, planktonic culture; format: cell-based, Moraxella catarrhalis
Description: as §1, §2, §3, §4, §5

P. anaerobius (+) = assay: porfimer sodium aPDT, 48 hour biofilm culture; format: cell-based, Peptostreptococcus anaerobius; settings: 630 nm, kill at 100 J/cm2 (light dose 75-100 J/cm2), porfimer sodium 250 μg/mL
Description: as §1
(§6) The colony forming units (CFU) per mL of the starting inoculum for every experiment was determined by dilution plating. Control samples were exposed to laser at 630 nm in the absence of porfimer sodium, porfimer sodium in the absence of laser exposure, or in saline alone in the absence of porfimer sodium and 630 nm laser light. All experimental samples were dilution plated to enumerate viable CFU's. Three independent replicates were performed for each reaction condition per strain per assay. […]
as §4, §5

P. acnes (+) = assay: porfimer sodium aPDT, 48 hour biofilm culture; format: cell-based, Proprionibacterium acnes (Cutibacterium acnes); settings: 630 nm, kill at 100 J/cm2 (light dose 75-100 J/cm2), porfimer sodium 250 μg/mL
Description: as §1, §6, §4, §5

S. aureus (+) = assay: porfimer sodium aPDT, 48 hour biofilm culture; format: cell-based, Staphylococcus aureus; settings: 630 nm, kill at 75 J/cm2 (light dose 75-100 J/cm2), porfimer sodium 250 μg/mL
Description: as §1, §6, §4, §5

[1] = test system: Moraxella catarrhalis, Methicillin resistant Staphylococcus aureus (MRSA), Porphymonas gingivalis, Cutibacterium acnes, Peptostreptococcus anaerobius …; assay: aPDT on 48 hour biofilms of various strains, CFU (FIG. 2); format: cell-based
Description: Biofilms were formed on glass coupons in culture dishes containing a bacterial inoculum for 48 hours under conditions specific to the strain. The glass coupon attached biofilms were then rinsed with saline, by dipping method, prior to the administration of the porfimer sodium. The biofilms were incubated in the dark for 15-30 minutes with a reconstituted saline solution of porfimer sodium at final concentrations ranging from 75 μg/ml-250 μg/ml. The porfimer sodium treated biofilms were then exposed to light doses at 630 nm light of 50-200 J/cm^2 at a power density of 150 milliwatts per cm^2. The light was delivered using a fiberoptic with a lens attached at the distal end to provide a uniform light field over the area of the samples being treated. The accuracy of the wavelength delivered was routinely checked using an Optometrics USA Inc. 1 nm/div monochromator. Power output of the laser was measured using a UDT/Gamma Scientific 371 optical power meter and an integrating sphere. Control samples were 1) bacterial suspensions without any light or porfimer sodium (NLNP); and 2) porfimer sodium alone in bacterial suspension without any light (NLP) and 3) light alone (L). The light alone control was exposed to the highest light dose used in that particular experiment. Light doses are in joules/cm^2. Power density was 150 mW/cm^2 for each in vitro trial. […]

What does the source list for porfimer sodium?
Rate of kill (S. enterica (−)): 6Log; Rate of kill (Y. intermedia (−)): 7Log; Rate of kill (A. baumannii (−)): 1Log; Rate of kill (N. gonorrhoea (−)): 4Log; bacterial cell kill (M. catarrhalis (−); 125 μg/ml, incubated 10 minutes, light doses 50-100 J/cm^2): 6-7 logs; Rate of kill (M. catarrhalis (−); 630 nm, 200 J/cm2, porfimer sodium 125 μg/mL): 7Log; Rate of kill (P. anaerobius (+)): >6Log; Rate of kill (P. acnes (+)): 7Log; Rate of kill (S. aureus (+)): >6Log; decrease of viability of the bacteria in biofilm ([1]; depending on the dose): 2-7 logs; log reduction at the highest light doses (complete reduction, all strains examined) ([1]; highest light doses used): ~7 log reduction
